Calls of active or inactive are those of the source. No cut-off for these calls is given here.
What was measured:
[1] = system: HUVEC; experiment: Antiproliferative activity against HUVEC grown in presence of growth factors after 48 hrs by spectrophotometry; type: functional, cell-based; settings: Homo sapiens
[2] = system: HUVEC; experiment: Antiproliferative activity against HUVEC grown in absence of growth factors after 48 hrs by spectrophotometry; type: functional, cell-based; settings: Homo sapiens
[3] = system: DU-145; experiment: Antiproliferative activity against human DU145 after 48 hrs by spectrophotometry; type: functional, cell-based; settings: DU-145, 48 h
[4] = system: Calu-6; experiment: Antiproliferative activity against human Calu6 after 48 hrs by spectrophotometry; type: functional, cell-based; settings: Calu-6, 48 h
[5] = system: A-431; experiment: Antiproliferative activity against human A431 after 48 hrs by spectrophotometry; type: functional, cell-based; settings: A-431, 48 h
[6] = system: AU565; experiment: Antiproliferative activity against human AU565 after 48 hrs by spectrophotometry; type: functional, cell-based; settings: AU565, 48 h
[7] = system: BT-549; experiment: Antiproliferative activity against human BT549 after 48 hrs by spectrophotometry; type: functional, cell-based; settings: BT-549, 48 h
[8] = system: Rattus norvegicus; experiment: Half life in Sprague-Dawley rat at 6 umol/kg, iv; type: ADME, organism-based; settings: in vivo
[9] = system: Rattus norvegicus; experiment: Volume of distribution at steady state in Sprague-Dawley rat at 6 umol/kg, iv; type: ADME, organism-based; settings: in vivo
[10] = system: Plasma; experiment: Plasma protein binding in Sprague-Dawley rat at 6 umol/kg, iv; type: ADME, cell-free
[11] = Inhibition of tubulin polymerization by spectrophotometry
[12] = system: MCF7; experiment: Antiproliferative activity against human MCF7 cells assessed after 48 hrs by spectrophotometry; type: functional, cell-based; settings: MCF7, 48 h
[13] = system: HUVEC; experiment: Selectivity ratio of IC50 for HUVEC grown in absence of growth factors to IC50 for HUVEC grown in presence of growth factors; type: functional, Homo sapiens
[14] = system: MDA-MB-231; experiment: Antitumor activity against human MDA-MB-231 xenografted in mouse assessed as tumor growth inhibition at 150 mg/kg administered on day 1 and 5; type: functional, organism-based; design: dose 150 mg/kg
[15] = system: 786-0; experiment: Antiproliferative activity against MDR-1 overexpressing human 786-0 cells; type: functional, cell-based
[16] = system: 786-0; experiment: Antiproliferative activity against MDR-1 overexpressing human 786-0 cells in presence of MDR1 inhibitor verapamil; type: functional, cell-based
[17] = Antiproliferative activity against human HAAE1 grown in presence of growth factors after 48 hrs by spectrophotometry; type: functional
[18] = Antiproliferative activity against human HAAE1 grown in absence of growth factors after 48 hrs by spectrophotometry; type: functional
[19] = Antiproliferative activity against human U87MG after 48 hrs by spectrophotometry; type: functional, U-87MG ATCC; settings: U-87 MG
[20] = system: MDA-MB-231; experiment: Antiproliferative activity against human MDA-MB-231 after 48 hrs by spectrophotometry; type: functional, cell-based; settings: MDA-MB-231, 48 h
[21] = system: A-375; experiment: Antiproliferative activity against human A375 after 48 hrs by spectrophotometry; type: functional, cell-based; settings: A-375, 48 h
[22] = system: SK-OV-3; experiment: Antiproliferative activity against human SKOV3 after 48 hrs by spectrophotometry; type: functional, cell-based; settings: SK-OV-3, 48 h
[23] = system: LoVo; experiment: Antiproliferative activity against human LoVo after 48 hrs by spectrophotometry; type: functional, cell-based
[24] = system: A2780; experiment: Cytotoxicity against human A2780 cells; type: functional, cell-based
[25] = Cytotoxicity against human A2780/ADR cells; type: functional, cell-based
[26] = Cytotoxicity against human A2780cis cells; type: functional, cell-based; settings: A2780cisR
[27] = Aqueous solubility of the compound; type: physicochemical; settings: buffer
[28] = Drug uptake in tumor of MDA-MB-231 breast cancer BALB/c mouse model at 1 to 150 mg/kg, iv measured after 24 hrs; type: ADME, organism-based; design: dose 1-150 mg/kg, route intravenous; settings: in vivo
[29] = system: MDA-MB-231; experiment: Antitumor activity against human MDA-MB-231 xenografted in mouse assessed as tumor growth inhibition at 40 mg/kg administered on day 1 and 8 measured after 70 days; type: functional, organism-based; design: dose 40 mg/kg
[30] = system: MDA-MB-231; experiment: Antitumor activity against human MDA-MB-231 xenografted in mouse assessed as tumor growth inhibition at 10 mg/kg administered on day 1 and 5; type: functional, organism-based; design: dose 10 mg/kg

Compound	IC50 [2]	IC50 [11]	IC50 [12]	IC50 ([1]; read-out: IC50)	Ratio IC50 [13]	other results
COc1ccc(/C=C\c2cc(OC)c(OC)c(OC)c2)cc1O [COMBRETASTATIN A4]	3.9 nM	–	–	–	–	IC50 [1]: 3.6 nM; IC50 [3]: 4 nM; IC50 [4]: 0.94 nM; IC50 [5]: 188 nM; IC50 [6]: 4.4 nM; IC50 [7]: 3.5 nM; t1/2 [8]: 0.7 h; Vdss [9]: 7.3 L/kg; PPB [10]: 98.9%
COc1ccc2c(C(=O)c3cc(OC)c(OC)c(OC)c3)c(-c3ccc(O)cc3)oc2c1	34 nM	2300 nM	48 nM	30 nM	1.1	–
COc1cc(C(=O)c2c(-n3cccc3)oc3c(O)c(OC)ccc23)cc(OC)c1OC	3.3 nM	–	–	–	–	–
COc1cc(C(=O)c2c(-c3cccs3)oc3c(O)c(OC)ccc23)cc(OC)c1OC	0.36 nM	–	0.5 nM	0.31 nM	1.2	–
COc1cc(C(=O)c2coc3c(O)c(OC)ccc23)cc(OC)c1OC	322 nM	–	45 nM	83 nM	–	–
COC(=O)/C=C/c1oc2c(O)c(OC)ccc2c1C(=O)c1cc(OC)c(OC)c(OC)c1	2.3 nM	–	–	0.38 nM	6	–
COc1cc(C(=O)c2c(-c3cnn(C)c3)oc3c(OC(C)C)c(OC)ccc23)cc(OC)c1OC	419 nM	–	42 nM	665 nM	0.6	–
COc1ccc(/C=C\c2cc(OC)c(OC)c(OC)c2)cc1OP(=O)(O)O	–	–	–	–	–	growth inhibition (GI) [14]: Active
COc1cc(C(=O)c2c(NCCN(C)C)oc3c(O)c(OC)ccc23)cc(OC)c1OC	36 nM	–	–	29 nM	1.2	–
COc1ccc2c(C(=O)c3cc(OC)c(OC)c(OC)c3)coc2c1	63 nM	1600 nM	55 nM	45 nM	1.4	–
COc1ccc2c(C(=O)c3cc(OC)c(OC)c(OC)c3)c(-c3ccc(OC)nc3)oc2c1	27 nM	–	71 nM	45 nM	0.6	–
CC(=O)O[C@H]1C(=O)[C@@]2(C)[C@H]([C@H](OC(=O)c3ccccc3)[C@]3(O)C[C@H](OC(=O)[C@H](O)[C@@H](NC(=O)c4ccccc4)c4ccccc4)C(C)=C1C3(C)C)[C@]1(OC(C)=O)CO[C@@H]1C[C@@H]2O [PACLITAXEL]	–	–	–	–	–	IC50 [15]: 31 nM; IC50 [16]: 4 nM
COc1ccc2c(C(=O)c3cc(OC)c(OC)c(OC)c3)c(Br)oc2c1	309 nM	–	–	510 nM	0.6	–
COc1ccc2c(C(=O)c3cc(OC)c(OC)c(OC)c3)c(-c3ccc(OC)c(N)c3)oc2c1	44 nM	1900 nM	26 nM	32 nM	1.4	–
COc1cc(C(=O)c2c(C)oc3c(O)c(OC)ccc23)cc(OC)c1OC	25 nM	3000 nM	2.4 nM	0.31 nM	–	IC50 [17]: 0.1 nM; IC50 [18]: 12 nM; IC50 [19]: 0.41 nM; IC50 [3]: 0.36 nM; IC50 [4]: 0.16 nM; IC50 [20]: 0.63 nM; IC50 [21]: 1.5 nM; IC50 [22]: 0.59 nM; IC50 [23]: 0.24 nM; IC50 [6]: 5.8 nM; IC50 [7]: 0.34 nM; IC50 [24]: 0.03 nM; IC50 [25]: 0.06 nM; IC50 [26]: 0.01 nM; t1/2 [8]: 3.5 h; Vdss [9]: 7.1 L/kg; solubility [27]: Insoluble; Drug uptake [28]: 64%
CC[C@]1(O)C[C@H]2CN(CCc3c([nH]c4ccccc34)[C@@](C(=O)OC)(c3cc4c(cc3OC)N(C=O)[C@H]3[C@@](O)(C(=O)OC)[C@H](OC(C)=O)[C@]5(CC)C=CCN6CC[C@]43[C@@H]65)C2)C1 [VINCRISTINE]	–	–	–	–	–	IC50 [15]: 37 nM; IC50 [16]: 1.2 nM
COc1ccc(-c2oc3c(O)c(OC)ccc3c2C(=O)c2cc(OC)c(OC)c(OC)c2)cc1O	3.4 nM	800 nM	4 nM	1.7 nM	2	–
COc1cc(C(=O)c2c(C#N)oc3c(O)c(OC)ccc23)cc(OC)c1OC	3 nM	–	–	1.1 nM	2.7	–
COc1ccc2c(C(=O)c3cc(OC)c(OC)c(OC)c3)c(N3CCN(C)CC3)oc2c1	405 nM	–	215 nM	484 nM	0.8	–
COc1ccc2c(C(=O)c3cc(OC)c(OC)c(OC)c3)c(-c3ccc4c(ccn4C)c3)oc2c1	32 nM	1300 nM	–	41 nM	0.8	–
COc1ccc(-c2sccc2C(=O)c2cc(OC)c(OC)c(OC)c2)cc1O	–	1000 nM	–	–	–	–
CC[C@]1(O)C[C@@H]2CN(CCc3c([nH]c4ccccc34)[C@@](C(=O)OC)(c3cc4c(cc3OC)N(C)[C@H]3[C@@](O)(C(=O)OC)[C@H](OC(C)=O)[C@]5(CC)C=CCN6CC[C@]43[C@@H]65)C2)C1 [VINBLASTINE]	–	–	–	–	–	IC50 [15]: 4.5 nM; IC50 [16]: 0.31 nM
COc1cc(C(=O)c2c(-c3cnn(C)c3)oc3c(O)c(OC)ccc23)cc(OC)c1OC	0.7 nM	1300 nM	1 nM	0.4 nM	1.8	–
COc1cc(C(=O)c2c(-c3ccco3)oc3c(O)c(OC)ccc23)cc(OC)c1OC	3.4 nM	8700 nM	0.6 nM	3.6 nM	0.9	–
COc1cc(C(=O)c2c(C)oc3c(OP(=O)([O-])[O-])c(OC)ccc23)cc(OC)c1OC.[Na+].[Na+]	–	–	–	–	–	growth inhibition (GI) [29]: Active; growth inhibition (GI) [30]: Active; solubility [27]: soluble
COc1cc(C(=O)c2c(NCCO)oc3c(O)c(OC)ccc23)cc(OC)c1OC	2.9 nM	–	–	3.1 nM	0.9	–
COc1cc(C(=O)c2c(N)oc3c(O)c(OC)ccc23)cc(OC)c1OC	8.8 nM	–	–	1.9 nM	4.6	–
COc1cc(C(=O)c2c(/C=C/C(N)=O)oc3c(O)c(OC)ccc23)cc(OC)c1OC	2.3 nM	–	–	2.6 nM	0.9	–
